Reference: ChEMBL document CHEMBL4402560, “Sarco/Endoplasmic Reticulum Calcium ATPase Inhibitors: Beyond Anticancer Perspective” (J Med Chem, 2020)
Values belong to the compound of their own block, whether it stands above or below them.

Assays:
[1] = Inhibition of fish liver microsomes SERCA by enzyme-coupled method; design: species or system Squalius cephalus
[2] = molecular target: T1, Sarcoplasmic/endoplasmic reticulum calcium ATPase 1 (Oryctolagus cuniculus, UniProt P04191); test: Inhibition of rabbit SERCA1a
[3] = molecular target: T1, Sarcoplasmic/endoplasmic reticulum calcium ATPase 1; test: Inhibition of SERCA1a in rabbit microsomes
[4] = molecular target: Sarcoplasmic/endoplasmic reticulum calcium ATPase 2 (Mus musculus, UniProt O55143); test: Inhibition of SERCA2b in mouse testicular microsomes; design: species or system Testis
[5] = molecular target: Sarcoplasmic/endoplasmic reticulum calcium ATPase 3 (Mus musculus, UniProt Q64518); test: Inhibition of SERCA3 in mouse testicular microsomes; design: species or system Testis
[6] = molecular target: T1, Sarcoplasmic/endoplasmic reticulum calcium ATPase 1; test: Inhibition of rabbit skeletal muscle microsomes SERCA1a incubated for 10 mins by enzyme-coupled method
[7] = molecular target: Sarcoplasmic/endoplasmic reticulum calcium ATPase 1 (Homo sapiens, UniProt O14983); test: Inhibition of SERCA1a (unknown origin) incubated for 10 mins by enzyme-coupled method
[8] = Inhibition of rabbit skeletal muscle microsomes SERCA incubated for 3 mins by [gamma32P]ATP based radiometric assay; design: species or system Oryctolagus cuniculus
[9] = Inhibition of SERCA in chicken cerebellar microsomes; design: species or system Gallus gallus, Cerebellum
[10] = Inhibition of SERCA (unknown origin); design: species or system Homo sapiens
[11] = Inhibition of Sodium/potassium-transporting ATPase in porcine brain peincubated for 5 mins followed by addition of ATP and measured after 15 mins; format: tissue-based, Sus scrofa domesticus
[12] = Inhibition of Sodium/potassium-transporting ATPase in guinea pig brain peincubated for 5 mins followed by addition of ATP and measured after 15 mins; format: tissue-based, Cavia porcellus
[13] = Inhibition of Sodium/potassium-transporting ATPase in guinea pig heart peincubated for 5 mins followed by addition of ATP and measured after 15 mins; format: tissue-based, Cavia porcellus
[14] = Inhibition of Sodium/potassium-transporting ATPase in dog kidney peincubated for 5 mins followed by addition of ATP and measured after 15 mins; format: tissue-based, Canis lupus familiaris
[15] = molecular target: T1, Sarcoplasmic/endoplasmic reticulum calcium ATPase 1; test: Inhibition of rabbit skeletal muscle microsomes SERCA1a
[16] = molecular target: Sodium/potassium-transporting ATPase; test: Competitive inhibition of Sodium/potassium-transporting ATPase (unknown origin) by liquid scintillation counting method; format: protein-complex assay, Homo sapiens
[17] = Competitive inhibition of SERCA (unknown origin) by liquid scintillation counting method; design: species or system Homo sapiens
HeLa = test: Antiproliferative activity against human HeLa cells; format: functional, cell-based
[18] = molecular target: Sarcoplasmic/endoplasmic reticulum calcium ATPase 1 (Mus musculus) (UniProt Q8R429); test: Inhibition of SERCA1 in C57BL/6 mouse primary neurons at 30 uM by UV-Vis spectrophotometric method relative to control
[19] = molecular target: Sarcoplasmic/endoplasmic reticulum calcium ATPase 2 (Mus musculus) (UniProt O55143); test: Inhibition of SERCA2 in C57BL/6 mouse primary neurons at 30 uM by UV-Vis spectrophotometric method relative to control
[20] = molecular target: T1, Sarcoplasmic/endoplasmic reticulum calcium ATPase 1; test: Inhibition of rabbit SERCA1a incubated for 10 mins by enzyme-coupled method
[21] = Inhibition of porcine cerebellar microsomes SERCA2b incubated for 10 mins by enzyme-coupled method; design: species or system Sus scrofa domesticus, Cerebellum
Oryctolagus cuniculus [22] = species: Oryctolagus cuniculus; test: Inhibition of rabbit kidney Sodium/potassium-transporting ATPase by PK/LDH method
Oryctolagus cuniculus [23] = species: Oryctolagus cuniculus; test: Inhibition of rabbit kidney Sodium/potassium-transporting ATPase by malachite green based colorimetric method
[24] = molecular target: Potassium-transporting ATPase (Sus scrofa, UniProt P19156); test: Inhibition of pig gastric mucosa Potassium-transporting ATPase by malachite green based colorimetric method; format: protein-complex assay, Sus scrofa domesticus

T1 sequence (P04191 whole entry): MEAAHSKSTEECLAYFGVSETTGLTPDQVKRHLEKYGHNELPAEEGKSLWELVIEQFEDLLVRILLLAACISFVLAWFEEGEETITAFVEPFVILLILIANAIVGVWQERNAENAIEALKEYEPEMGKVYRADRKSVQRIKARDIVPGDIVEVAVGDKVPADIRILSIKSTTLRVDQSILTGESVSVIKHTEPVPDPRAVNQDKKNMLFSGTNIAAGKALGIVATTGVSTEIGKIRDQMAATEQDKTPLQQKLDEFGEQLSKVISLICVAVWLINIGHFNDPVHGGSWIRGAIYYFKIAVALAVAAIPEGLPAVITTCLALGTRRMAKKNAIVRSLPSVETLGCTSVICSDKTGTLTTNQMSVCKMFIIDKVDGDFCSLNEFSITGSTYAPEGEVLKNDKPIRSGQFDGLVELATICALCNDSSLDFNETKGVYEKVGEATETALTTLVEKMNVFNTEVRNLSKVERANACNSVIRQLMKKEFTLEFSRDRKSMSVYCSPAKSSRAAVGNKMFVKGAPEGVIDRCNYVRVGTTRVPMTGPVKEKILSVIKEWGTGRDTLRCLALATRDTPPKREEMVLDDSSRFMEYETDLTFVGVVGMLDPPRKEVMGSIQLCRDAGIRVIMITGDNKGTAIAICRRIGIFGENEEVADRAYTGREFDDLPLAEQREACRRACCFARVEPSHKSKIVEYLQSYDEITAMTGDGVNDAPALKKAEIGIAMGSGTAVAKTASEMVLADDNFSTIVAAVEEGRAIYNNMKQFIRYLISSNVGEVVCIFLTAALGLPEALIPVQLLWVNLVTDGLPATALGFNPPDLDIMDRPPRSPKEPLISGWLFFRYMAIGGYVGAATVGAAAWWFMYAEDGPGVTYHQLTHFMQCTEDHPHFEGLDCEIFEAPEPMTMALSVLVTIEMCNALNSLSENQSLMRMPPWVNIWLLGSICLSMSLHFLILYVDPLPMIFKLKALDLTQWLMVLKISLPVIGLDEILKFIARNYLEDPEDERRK
Sarcoplasmic/endoplasmic reticulum calcium ATPase 3, sequence (Q64518 whole entry): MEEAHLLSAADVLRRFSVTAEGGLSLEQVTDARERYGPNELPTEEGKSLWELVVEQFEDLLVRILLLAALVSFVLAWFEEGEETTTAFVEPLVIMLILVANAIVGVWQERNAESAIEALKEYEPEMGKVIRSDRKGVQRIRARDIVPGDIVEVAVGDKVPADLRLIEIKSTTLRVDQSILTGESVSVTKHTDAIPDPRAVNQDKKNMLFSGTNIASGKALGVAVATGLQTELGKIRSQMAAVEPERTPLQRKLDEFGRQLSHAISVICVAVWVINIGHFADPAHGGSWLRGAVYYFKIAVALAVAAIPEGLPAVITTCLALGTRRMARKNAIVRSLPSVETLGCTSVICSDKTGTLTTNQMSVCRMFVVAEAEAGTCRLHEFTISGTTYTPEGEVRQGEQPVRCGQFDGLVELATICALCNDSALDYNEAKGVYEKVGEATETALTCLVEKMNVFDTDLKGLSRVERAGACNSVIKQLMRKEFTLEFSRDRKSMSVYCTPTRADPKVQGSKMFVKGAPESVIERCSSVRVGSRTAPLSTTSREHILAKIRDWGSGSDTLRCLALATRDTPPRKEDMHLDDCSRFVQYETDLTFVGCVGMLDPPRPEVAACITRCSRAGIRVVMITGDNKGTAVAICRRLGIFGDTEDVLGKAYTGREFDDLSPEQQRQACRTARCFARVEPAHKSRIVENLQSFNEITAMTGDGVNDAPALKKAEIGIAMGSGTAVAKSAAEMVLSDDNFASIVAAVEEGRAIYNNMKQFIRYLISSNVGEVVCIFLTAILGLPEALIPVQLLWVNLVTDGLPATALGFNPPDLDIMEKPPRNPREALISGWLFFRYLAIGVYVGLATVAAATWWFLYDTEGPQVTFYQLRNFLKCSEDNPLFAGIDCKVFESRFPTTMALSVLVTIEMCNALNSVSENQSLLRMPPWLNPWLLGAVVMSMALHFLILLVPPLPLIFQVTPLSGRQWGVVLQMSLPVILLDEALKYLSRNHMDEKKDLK
Sarcoplasmic/endoplasmic reticulum calcium ATPase 2 (Mus musculus), sequence (O55143 whole entry): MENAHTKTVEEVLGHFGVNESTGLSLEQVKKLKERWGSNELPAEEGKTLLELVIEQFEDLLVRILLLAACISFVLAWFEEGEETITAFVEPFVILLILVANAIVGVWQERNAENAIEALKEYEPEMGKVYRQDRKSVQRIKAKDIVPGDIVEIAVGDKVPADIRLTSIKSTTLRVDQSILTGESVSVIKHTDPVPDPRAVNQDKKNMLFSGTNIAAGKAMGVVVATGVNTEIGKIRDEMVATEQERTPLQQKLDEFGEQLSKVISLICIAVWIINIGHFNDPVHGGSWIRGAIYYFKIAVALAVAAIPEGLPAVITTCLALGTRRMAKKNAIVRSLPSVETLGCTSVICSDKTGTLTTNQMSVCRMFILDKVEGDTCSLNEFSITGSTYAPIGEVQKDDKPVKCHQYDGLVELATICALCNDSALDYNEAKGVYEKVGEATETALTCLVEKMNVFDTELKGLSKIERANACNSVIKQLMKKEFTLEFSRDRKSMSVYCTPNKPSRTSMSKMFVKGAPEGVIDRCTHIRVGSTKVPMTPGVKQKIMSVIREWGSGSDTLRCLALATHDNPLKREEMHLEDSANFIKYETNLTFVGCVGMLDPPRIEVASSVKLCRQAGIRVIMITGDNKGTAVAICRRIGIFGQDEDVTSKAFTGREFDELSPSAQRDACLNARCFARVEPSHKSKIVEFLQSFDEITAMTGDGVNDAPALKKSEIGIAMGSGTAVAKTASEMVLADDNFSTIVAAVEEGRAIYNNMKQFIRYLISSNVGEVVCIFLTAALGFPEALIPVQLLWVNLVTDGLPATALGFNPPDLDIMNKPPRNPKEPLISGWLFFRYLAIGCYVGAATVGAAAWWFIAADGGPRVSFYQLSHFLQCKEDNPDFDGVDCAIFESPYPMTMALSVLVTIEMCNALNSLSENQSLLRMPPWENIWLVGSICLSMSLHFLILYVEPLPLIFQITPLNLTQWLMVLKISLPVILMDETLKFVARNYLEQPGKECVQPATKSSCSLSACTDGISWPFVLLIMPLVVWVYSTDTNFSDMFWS
Sarcoplasmic/endoplasmic reticulum calcium ATPase 2, sequence (O55143 whole entry): as above
Sarcoplasmic/endoplasmic reticulum calcium ATPase 1 (Mus musculus), sequence (Q8R429 whole entry): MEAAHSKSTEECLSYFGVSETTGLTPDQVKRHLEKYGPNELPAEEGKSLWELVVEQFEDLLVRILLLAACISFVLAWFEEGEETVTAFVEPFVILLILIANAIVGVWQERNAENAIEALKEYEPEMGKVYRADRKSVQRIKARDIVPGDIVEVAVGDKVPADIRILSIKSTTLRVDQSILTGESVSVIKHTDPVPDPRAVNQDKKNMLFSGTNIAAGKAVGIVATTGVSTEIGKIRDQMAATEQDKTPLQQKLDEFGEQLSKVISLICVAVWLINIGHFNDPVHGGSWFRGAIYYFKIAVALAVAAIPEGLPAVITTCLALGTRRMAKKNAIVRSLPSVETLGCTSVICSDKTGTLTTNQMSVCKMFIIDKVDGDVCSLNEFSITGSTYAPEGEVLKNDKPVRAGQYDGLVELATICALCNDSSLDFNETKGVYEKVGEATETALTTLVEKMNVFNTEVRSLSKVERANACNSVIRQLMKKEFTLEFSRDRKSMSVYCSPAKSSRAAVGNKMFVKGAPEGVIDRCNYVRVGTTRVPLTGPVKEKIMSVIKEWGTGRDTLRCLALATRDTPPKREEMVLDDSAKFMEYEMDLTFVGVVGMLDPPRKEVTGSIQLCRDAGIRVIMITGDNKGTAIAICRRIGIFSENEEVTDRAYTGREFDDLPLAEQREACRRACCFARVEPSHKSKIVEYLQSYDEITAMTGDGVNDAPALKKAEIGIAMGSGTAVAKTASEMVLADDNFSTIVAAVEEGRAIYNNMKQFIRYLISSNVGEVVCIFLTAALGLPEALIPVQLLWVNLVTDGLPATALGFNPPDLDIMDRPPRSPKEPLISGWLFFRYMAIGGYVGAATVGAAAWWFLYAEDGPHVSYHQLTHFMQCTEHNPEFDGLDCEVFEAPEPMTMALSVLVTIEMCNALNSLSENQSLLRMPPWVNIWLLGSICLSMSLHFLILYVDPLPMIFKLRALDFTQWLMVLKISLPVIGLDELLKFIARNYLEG
Sarcoplasmic/endoplasmic reticulum calcium ATPase 1 (Homo sapiens, UniProt O14983), sequence (O14983 whole entry): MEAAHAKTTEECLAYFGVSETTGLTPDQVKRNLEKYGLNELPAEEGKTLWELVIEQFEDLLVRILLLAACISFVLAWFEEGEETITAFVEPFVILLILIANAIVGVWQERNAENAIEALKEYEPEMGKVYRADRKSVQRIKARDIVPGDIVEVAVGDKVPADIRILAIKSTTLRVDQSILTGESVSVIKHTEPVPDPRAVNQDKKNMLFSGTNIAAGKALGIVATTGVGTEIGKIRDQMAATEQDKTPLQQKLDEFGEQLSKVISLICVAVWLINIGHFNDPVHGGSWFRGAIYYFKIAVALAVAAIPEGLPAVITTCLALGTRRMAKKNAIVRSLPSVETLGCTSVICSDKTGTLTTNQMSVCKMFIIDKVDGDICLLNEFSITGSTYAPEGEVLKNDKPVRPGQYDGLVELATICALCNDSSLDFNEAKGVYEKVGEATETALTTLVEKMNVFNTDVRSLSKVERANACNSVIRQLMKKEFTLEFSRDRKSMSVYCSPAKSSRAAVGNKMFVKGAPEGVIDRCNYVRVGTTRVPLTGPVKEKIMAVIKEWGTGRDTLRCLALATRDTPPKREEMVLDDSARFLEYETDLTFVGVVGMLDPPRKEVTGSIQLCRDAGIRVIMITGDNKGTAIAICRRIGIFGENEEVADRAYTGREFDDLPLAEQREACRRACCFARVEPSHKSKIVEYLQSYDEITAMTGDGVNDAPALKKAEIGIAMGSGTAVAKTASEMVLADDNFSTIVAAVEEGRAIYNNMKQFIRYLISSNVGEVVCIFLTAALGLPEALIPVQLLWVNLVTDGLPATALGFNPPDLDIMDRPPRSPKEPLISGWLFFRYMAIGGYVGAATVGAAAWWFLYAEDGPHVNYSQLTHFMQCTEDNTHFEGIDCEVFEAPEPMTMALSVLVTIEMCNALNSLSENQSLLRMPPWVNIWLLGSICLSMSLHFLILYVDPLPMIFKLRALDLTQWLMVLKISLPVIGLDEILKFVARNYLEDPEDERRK

Compound: CCCCCCCCCc1ccc(O)cc1 [4-NONYLPHENOL]
IC50 [1]: 4 µM
IC50 [2]: 0.35 to 6 µM
IC50 [3]: 0.35 to 6 µM
IC50 [4]: 0.35 to 6 µM
IC50 [5]: 0.35 to 6 µM

Compound: COc1ccc2c(c[n+](C)c3c4cc5c(cc4ccc23)OCO5)c1OC [CHELERYTHRINE]
IC50 [6]: 1.2 µM
IC50 [7]: 27 µM
IC50 [8]: 1.5 µM

Compound: SODIUM ORTHOVANAD
IC50 [9]: 10 to 100 µM

Compound: CC1=CCC[C@@H]2[C@@](C)(CC/C(C)=C/Cn3c[n+](C)c4ncnc(N)c43)[C@H](C)CC[C@@]12C
IC50 [10]: 5.58 µM
IC50 [11]: 11 to 29 µM
IC50 [12]: 11 to 29 µM
IC50 [13]: 11 to 29 µM
IC50 [14]: 11 to 29 µM

IC50 [15]: 29 µM
Ki [16]: 0.32 µM
Ki [17]: 20 µM
Compound: N=C(N)SCc1cc(CSC(=N)N)c(Br)c(CSC(=N)N)c1Br

IC50 [10]: 50 µM
IC50 (HeLa): 10 µM
inhibition [18]: 10%
inhibition [19]: 18%
Compound: C[C@H]1O[C@@H](O[C@H]2CC[C@@]3(C)[C@@H](CC[C@]4(C)[C@@H]3C=C[C@]35OC[C@@]6(CCC(C)(C)C[C@H]63)[C@H](O)C[C@]54C)[C@]2(C)CO)[C@H](O)[C@@H](O[C@@H]2O[C@H](CO)[C@@H](O)[C@H](O)[C@H]2O)[C@H]1O

Compound: C/C=C(\C)C(=O)O[C@@H]1C[C@H]2C(=C1C)[C@@H]1OC(=O)[C@@](C)(O)[C@@]1(O)[C@@H](OC(=O)[C@H](C)CC)C[C@@]2(C)OC(C)=O
IC50 [20]: 20 µM

Compound: Clc1ccc(C(c2ccc(Cl)cc2)[n+]2ccn(CC(OCc3ccc(Cl)cc3Cl)c3ccc(Cl)cc3Cl)c2)cc1 (configuration not stated) [CALMIDAZOLIUM CHLORIDE]
IC50 [21]: 0.5 µM
IC50 [6]: 0.5 µM

K0.5 (Oryctolagus cuniculus [22]): 24 to 30 µM
K0.5 (Oryctolagus cuniculus [23]): 24 to 30 µM
IC50 [24]: 5.2 µM
Compound: Clc1ccccc1C(c1ccccc1)(c1ccccc1)n1ccnc1 [CLOTRIMAZOLE]
